Measurements as given in ChEMBL document CHEMBL5360551, “Exploration of LPS2 agonist binding modes using the combination of a new hydrophobic scaffold and homology modeling” (Eur J Med Chem, 2023).

Legend:
[1] = target: Probable G-protein coupled receptor 34 (Mus musculus, UniProt Q9R1K6); experiment: Agonist activity at mouse LPS1/GPR34 transfected in HEK293-A cells co-transfected with AP-TGFalpha assessed as AP-TGFalpha release by TGFalpha shedding assay; format: functional, cell-based
[2] = target: Putative P2Y purinoceptor 10 (Mus musculus, UniProt Q8BFU7); experiment: Agonist activity at mouse LPS2/P2Y10 transfected in HEK293-A cells co-transfected with AP-TGFalpha assessed as AP-TGFalpha release by TGFalpha shedding assay; format: functional, cell-based
Chain of Putative P2Y purinoceptor 10 (Mus musculus, UniProt Q8BFU7) (Q8BFU7 whole entry): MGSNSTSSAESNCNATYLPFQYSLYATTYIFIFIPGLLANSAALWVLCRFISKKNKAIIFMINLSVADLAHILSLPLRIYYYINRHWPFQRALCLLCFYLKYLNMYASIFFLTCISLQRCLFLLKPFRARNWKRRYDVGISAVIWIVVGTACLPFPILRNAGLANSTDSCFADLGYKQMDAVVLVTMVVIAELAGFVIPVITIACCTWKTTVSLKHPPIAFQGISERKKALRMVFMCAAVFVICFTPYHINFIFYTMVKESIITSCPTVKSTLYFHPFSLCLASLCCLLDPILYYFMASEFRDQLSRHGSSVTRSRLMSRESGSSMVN

[3] = target: Putative P2Y purinoceptor 10 (Mus musculus) (UniProt Q8BFU7); experiment: Agonist activity at mouse LPS2/P2Y10 transfected in HEK293-A cells co-transfected with AP-TGFalpha assessed as AP-TGFalpha release by TGFalpha shedding assay relative to LysoPS; format: functional, cell-based; conditions: filed as agonist
Chain of Putative P2Y purinoceptor 10 (Mus musculus) (Q8BFU7 whole entry): as above

[4] = target: Probable G-protein coupled receptor 34 (Mus musculus) (UniProt Q9R1K6); experiment: Agonist activity at mouse LPS1/GPR34 transfected in HEK293-A cells co-transfected with AP-TGFalpha assessed as AP-TGFalpha release by TGFalpha shedding assay relative to LysoPS; format: functional, cell-based; conditions: filed as agonist
Chain of Probable G-protein coupled receptor 34 (Mus musculus) (Q9R1K6 whole entry): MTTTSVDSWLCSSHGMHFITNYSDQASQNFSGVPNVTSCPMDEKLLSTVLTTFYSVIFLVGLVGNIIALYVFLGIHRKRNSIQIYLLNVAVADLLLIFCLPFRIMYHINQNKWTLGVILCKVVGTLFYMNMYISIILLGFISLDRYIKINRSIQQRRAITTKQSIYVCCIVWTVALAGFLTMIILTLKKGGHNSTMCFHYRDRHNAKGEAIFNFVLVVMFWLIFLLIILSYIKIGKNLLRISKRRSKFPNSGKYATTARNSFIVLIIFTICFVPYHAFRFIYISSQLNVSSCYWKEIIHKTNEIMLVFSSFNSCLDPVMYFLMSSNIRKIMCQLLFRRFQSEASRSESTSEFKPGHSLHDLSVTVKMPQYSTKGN

[5] = target: T1, Putative P2Y purinoceptor 10 (Homo sapiens, UniProt O00398); experiment: Agonist activity at human LPS2/P2Y10 transfected in HEK293-A cells co-transfected with AP-TGFalpha assessed as AP-TGFalpha release by TGFalpha shedding assay; format: functional, cell-based
T1 sequence (O00398 whole entry): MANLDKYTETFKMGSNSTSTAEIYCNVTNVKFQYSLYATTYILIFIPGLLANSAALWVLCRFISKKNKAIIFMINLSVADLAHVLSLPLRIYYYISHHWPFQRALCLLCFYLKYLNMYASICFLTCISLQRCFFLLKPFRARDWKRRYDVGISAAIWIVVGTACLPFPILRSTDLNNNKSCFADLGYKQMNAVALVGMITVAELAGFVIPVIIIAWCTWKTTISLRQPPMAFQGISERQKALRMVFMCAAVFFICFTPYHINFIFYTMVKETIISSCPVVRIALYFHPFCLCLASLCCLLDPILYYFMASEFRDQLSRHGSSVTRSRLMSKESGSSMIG

[6] = target: T1, Putative P2Y purinoceptor 10; experiment: Agonist activity at human LPS2/P2Y10 transfected in HEK293-A cells co-transfected with AP-TGFalpha assessed as AP-TGFalpha release by TGFalpha shedding assay relative to LysopPS; format: functional, cell-based; conditions: filed as agonist
[7] = target: T1, Putative P2Y purinoceptor 10; experiment: Agonist activity at wildtype N-terminal FLAG-tagged human LPS2/P2Y10 transfected in HEK293-A cells co-transfected with AP-TGFalpha assessed as AP-TGFalpha release by TGFalpha shedding assay; format: functional, cell-based
[8] = target: Putative P2Y purinoceptor 10 (Homo sapiens, UniProt O00398, V159F); experiment: Agonist activity at N-terminal FLAG-tagged human LPS2/P2Y10 V159F mutant transfected in HEK293-A cells co-transfected with AP-TGFalpha assessed as AP-TGFalpha release by TGFalpha shedding assay; format: cell-based
Chain of Putative P2Y purinoceptor 10 (Homo sapiens, UniProt O00398, V159F) (O00398 whole entry V159F): as the sequence (O00398 whole entry) above, with V159F counted along it

[9] = system: Putative P2Y purinoceptor 10 (Homo sapiens), O00398 [V159F]; experiment: Agonist activity at N-terminal FLAG-tagged human LPS2/P2Y10 V159F mutant transfected in HEK293-A cells co-transfected with AP-TGFalpha assessed as AP-TGFalpha release by TGFalpha shedding assay relative to LysoPS; format: cell-based; conditions: filed as agonist
Chain of Putative P2Y purinoceptor 10 (Homo sapiens), O00398 [V159F] (O00398 whole entry V159F): as the sequence (O00398 whole entry) above, with V159F counted along it

[10] = target: Putative P2Y purinoceptor 10 (Homo sapiens, UniProt O00398, A163F); experiment: Agonist activity at N-terminal FLAG-tagged human LPS2/P2Y10 A163F mutant transfected in HEK293-A cells co-transfected with AP-TGFalpha assessed as AP-TGFalpha release by TGFalpha shedding assay; format: cell-based
Chain of Putative P2Y purinoceptor 10 (Homo sapiens, UniProt O00398, A163F) (O00398 whole entry A163F): as the sequence (O00398 whole entry) above, with A163F counted along it

[11] = system: Putative P2Y purinoceptor 10 (Homo sapiens), O00398 [A163F]; experiment: Agonist activity at N-terminal FLAG-tagged human LPS2/P2Y10 A163F mutant transfected in HEK293-A cells co-transfected with AP-TGFalpha assessed as AP-TGFalpha release by TGFalpha shedding assay relative to LysoPS; format: cell-based; conditions: filed as agonist
Chain of Putative P2Y purinoceptor 10 (Homo sapiens), O00398 [A163F] (O00398 whole entry A163F): as the sequence (O00398 whole entry) above, with A163F counted along it

Chain of Probable G-protein coupled receptor 34 (Q9R1K6 whole entry): as the sequence (Q9R1K6 whole entry) above

Row | SMILES | EC50 ([2]; read-out: EC50) [nM] | Emax [3] [%] | other results
1 | Cc1cc(C)cc(-c2cccc(COc3ccccc3CCC(=O)OCCCOP(=O)(O)OC[C@H](N)C(=O)O)c2)c1 | 46 | 114 | EC50 [1]: > 3000 nM
2 | N[C@@H](COP(=O)(O)OCCCOC(=O)CCc1ccccc1OCc1cccc(Oc2ccccc2)c1)C(=O)O | 90 | 63 | EC50 ([1]; hek293-a): 220 nM; EC50 ([2]; read-out: pEC50 (converted)): 93.3 nM; Emax [4]: 124%
3 | N[C@@H](COP(=O)(O)OCCCOC(=O)CCc1ccccc1Oc1ccc(-c2ccc(C34C[C@H]5C[C@@H](C3)C[C@@H](C4)C5)cc2)cc1)C(=O)O | 5.3 | 68 | –
4 | CC(C)(C)c1cccc(Oc2ccccc2CCC(=O)OCCCOP(=O)(O)OC[C@H](N)C(=O)O)c1 | 400 | 113 | –
5 | N[C@@H](COP(=O)(O)OCCCCCOC(=O)CC(=O)CC(=O)Cc1ccccc1Oc1ccc(-c2ccccc2)cc1)C(=O)O | 100 | 96 | –
6 | N[C@@H](COP(=O)(O)OCCCOC(=O)CCc1ccccc1Oc1ccccc1-c1ccccc1)C(=O)O | 890 | 105 | EC50 ([5]; read-out: EC50): > 3 nM; EC50 ([5]; read-out: pEC50 (converted)): 5130 nM
7 | CCCCCCCC/C=C\CCCCCCCC(=O)OCCCOP(=O)(O)OC[C@H](N)C(N)=O | 24 | 112 | EC50 [1]: > 3000 nM
8 | CC(C)(C)c1cc(-c2cccc(COc3ccccc3CCC(=O)OCCCOP(=O)(O)OC[C@H](N)C(=O)O)c2)cc(C(C)(C)C)c1 | 28 | 109 | EC50 [1]: > 3000 nM
9 | Cc1ccc(-c2ccc(Oc3ccccc3CCC(=O)OCCCOP(=O)(O)OC[C@H](N)C(=O)O)cc2)cc1 | 11 | 108 | –
10 | Cc1ccccc1Oc1ccccc1CCC(=O)OCCCOP(=O)(O)OC[C@H](N)C(=O)O | 140 | 70 | –
11 | N[C@@H](COP(=O)(O)OCCCOC(=O)CCc1ccccc1Oc1ccc(-c2ccc(-c3ccccc3)cc2)cc1)C(=O)O | 3.7 | 70 | EC50 ([5]; read-out: EC50): 8 nM; Emax [6]: 89%
12 | Cc1cccc(Oc2ccccc2CCC(=O)OCCCOP(=O)(O)OC[C@H](N)C(=O)O)c1 | 210 | 78 | –
13 | CC(C)(C)c1ccc(-c2ccc(Oc3ccccc3CCC(=O)OCCCOP(=O)(O)OC[C@H](N)C(=O)O)cc2)cc1 | 3 | 78 | –
14 | CC(C)(C)c1cccc(-c2ccc(Oc3ccccc3CCC(=O)OCCCOP(=O)(O)OC[C@H](N)C(=O)O)cc2)c1 | 14 | 115 | –
15 | N[C@@H](COP(=O)(O)OCCCCOC(=O)CC(=O)Cc1ccccc1Oc1ccc(-c2ccccc2)cc1)C(=O)O | 140 | 98 | –
16 | CCCCCCCCCCCOc1ccccc1CCC(=O)OCC(F)(F)COP(=O)(O)OC[C@H](N)C(=O)O | 1.5 | 94 | –
17 | Cc1cccc(COc2ccccc2CCC(=O)OCCCOP(=O)(O)OC[C@H](N)C(=O)O)c1 | 340 | 114 | –
18 | N[C@@H](COP(=O)(O)OCCOC(=O)CC(=O)CC(=O)Cc1ccccc1Oc1ccc(-c2ccccc2)cc1)C(=O)O | 200 | 112 | –
19 | N[C@@H](COP(=O)(O)OCCCCOC(=O)CC(=O)CC(=O)Cc1ccccc1Oc1ccc(-c2ccccc2)cc1)C(=O)O | 31 | 118 | –
20 | CCc1ccc(Oc2ccccc2CCC(=O)OCCCOP(=O)(O)OC[C@H](N)C(=O)O)cc1 | 810 | 72 | –

Row | SMILES | EC50 ([2]; read-out: EC50) [nM] | Emax [3] [%] | other results
21 | Nc1ccc(Oc2ccccc2CCC(=O)OCCCOP(=O)(O)OC[C@H](N)C(=O)O)cc1 | 1.6 | 59 | EC50 ([2]; read-out: pEC50 (converted)): 1580 nM
22 | CC(C)(C)c1ccc(-c2cccc(COc3ccccc3CCC(=O)OCCCOP(=O)(O)OC[C@H](N)C(=O)O)c2)cc1 | 35 | 99 | EC50 [1]: 950 nM; Emax [4]: 107%
23 | N[C@@H](COP(=O)(O)OCCCOC(=O)CCc1ccccc1OCc1cccc(-c2ccccc2)c1)C(=O)O | 5.7 | 131 | EC50 [1]: > 3000 nM
24 | CCc1ccc(-c2ccc(Oc3ccccc3CCC(=O)OCCCOP(=O)(O)OC[C@H](N)C(=O)O)cc2)cc1 | 2.6 | 98 | –
25 | CCc1ccccc1Oc1ccccc1CCC(=O)OCCCOP(=O)(O)OC[C@H](N)C(=O)O | 170 | 78 | –
26 | N[C@@H](COP(=O)(O)OCCOC(=O)CC(=O)Cc1ccccc1Oc1ccc(-c2ccccc2)cc1)C(=O)O | > 3 | – | EC50 ([2]; read-out: pEC50 (converted)): 6030 nM
27 | N[C@@H](COP(=O)(O)OCCCOC(=O)CCc1ccccc1Oc1cccc(-c2ccccc2)c1)C(=O)O | 29 | 109 | EC50 ([5]; read-out: EC50): 62 nM; Emax [6]: 133%
28 | N[C@@H](COP(=O)(O)OCCCOC(=O)CC(=O)Cc1ccccc1Oc1ccc(-c2ccccc2)cc1)C(=O)O | 1.1 | 99 | EC50 ([2]; read-out: pEC50 (converted)): 1070 nM
29 | CCCCCCOc1cccc(COc2ccccc2CCC(=O)OCCCOP(=O)(O)OC[C@H](N)C(N)=O)c1 | 7.1 | 113 | EC50 [1]: > 3000 nM
30 | Cc1cc(C)cc(Oc2ccccc2CCC(=O)OCCCOP(=O)(O)OC[C@H](N)C(=O)O)c1 | 130 | 114 | –
31 | N#Cc1ccc(Oc2ccccc2CCC(=O)OCCCOP(=O)(O)OC[C@H](N)C(=O)O)cc1 | > 3 | – | EC50 ([2]; read-out: pEC50 (converted)): < 3160 nM
32 | N[C@@H](COP(=O)(O)OCCCOC(=O)CCc1ccccc1Oc1ccc(O)cc1)C(=O)O | > 3 | – | EC50 ([2]; read-out: pEC50 (converted)): < 3160 nM
33 | CCCCCCCCCCCOc1ccccc1CCC(=O)OCCCOP(=O)(O)OC[C@H](N)C(N)=O | 2.7 | 111 | EC50 [1]: 1600 nM; Emax [4]: 94%
34 | CC(C)(C)c1cc(Oc2ccccc2CCC(=O)OCCCOP(=O)(O)OC[C@H](N)C(=O)O)cc(C(C)(C)C)c1 | 200 | 125 | –
35 | N[C@@H](COP(=O)(O)OCCCCCOC(=O)CC(=O)Cc1ccccc1Oc1ccc(-c2ccccc2)cc1)C(=O)O | 240 | 105 | –
36 | N[C@@H](COP(=O)(O)OC1CCCO[C@@H]1COC(=O)CCc1ccccc1OCc1cccc(Oc2ccccc2)c1)C(=O)O (some centres undefined) | – | – | EC50 [1]: 180 nM; Emax [4]: 117%
37 | CCc1ccccc1-c1ccc(Oc2ccccc2CCC(=O)OCCCOP(=O)(O)OC[C@H](N)C(=O)O)cc1 | 18 | 92 | –
38 | N[C@@H](COP(=O)(O)OCCCOC(=O)CCc1ccccc1Oc1ccc(-c2ccccc2-c2ccccc2)cc1)C(=O)O | 6.7 | 87 | EC50 ([5]; read-out: EC50): 100 nM; Emax [6]: 113%
39 | N[C@@H](COP(=O)(O)OCCCOC(=O)CCc1ccccc1Oc1cc(-c2ccccc2)cc(-c2ccccc2)c1)C(=O)O | 23 | 121 | EC50 ([5]; read-out: EC50): 120 nM; Emax [6]: 152%
40 | N[C@@H](COP(=O)(O)OCCCOC(=O)CCc1ccccc1Oc1ccccc1)C(=O)O | 400 | 93 | EC50 [7]: > 3000 nM; EC50 [8]: 1500 nM; Emax [9]: 98%; EC50 [10]: 1600 nM; Emax [11]: 104%
